In patent US20060111418A1, “Blood-brain barrier disruption inhibitor” (Mitsubishi Pharma Corporation, priority 2003, published 2006):

Assays:
[1] = tested on: experimental autoimmune encephalomyelitis (EAE) model rats; assay: EAE model rats: cytokines in spinal fluid, protein ratio and blood-brain barrier permeability; format: in vivo, rat; details: 3 mg/kg/day i.p., at 10, 11 and 12 days after sensitization, n=3, FIG. 7
Method: (§1) Experimental autoimmune encephalomyelitis (EAE) model rats were prepared by known methods (Int. J. Immunopharmacol, 7: 497-503, 1995). First, an encephalitogenic emulsion consisting of equivalent amounts of Guinea pig spinal cord, sterile phosphate buffered saline (PBS), and Freund's incomplete adjuvant was prepared. Thereafter, 10 mg/ml Mycobacterium tuberculosis H37Ra (Difco Laboratories) was added to the emulsion. Rats (inbred male Lewis rats; body weight: 200 to 250 g) were inoculated with 0.1 ml each of the thus obtained emulsion by subcutaneous administration of the emulsion to both plantae of the hind legs thereof, so as to prepare EAE model rats.
With regard to the control rats and EAE model rats, the concentrations of TNF-α and IL-1β in blood plasma and in spinal fluid, the protein ratio in spinal fluid/blood plasma, and blood-brain barrier permeability (the ratio of the concentration (Kp, app) of sodium fluorescein in brain/blood plasma, 20 minutes after administration by intravenous injection) were measured, in both a case where edaravone was administered or a case where edaravone was not administered. The terms “Kp” and “app” indicate apparent distribution ratios, which are values obtained by dividing the concentration of fluorescein in brain tissues by the concentration thereof in blood plasma after intravenous injection of the fluorescein (wherein the values are multiplied by 100, so as to be expressed on a percentage basis). It is to be noted that the specific gravity of brain tissues is expressed as 1 (because the unit of concentration is expressed as/g tissue weight). The amount of edaravone administered was set at 3 mg/kg/day (intraperitoneal administration). From 10 days after sensitization (administration of an antigen solution), edaravone was administered at intervals of 24 hours for 3 days (that is, 3 administrations at 10 days, 11 days, and 12 days after sensitization).

[2] = tested on: experimental autoimmune encephalomyelitis (EAE) model rats; assay: EAE model rats: limb neuroparalysis score (Paul's clinical score); format: in vivo, rat; details: edaravone 3 mg/kg/day i.p., dexamethasone 1 mg/kg/day i.p., n=3, FIG. 8
Method: as §1
Moreover, limb neuroparalysis scores were evaluated in a group of EAE model rats to which no agents were administered (control), a group of EAE model rats to which dexamethasone was administered (1 mg/kg/day, intraperitoneal administration), and a group of EAE model rats to which edaravone was administered (3 mg/kg/day, intraperitoneal administration). The limb neuroparalysis scores were evaluated in accordance with the following standards.

[3] = reported in Kawai et al. 1997; Wu et al. 2000; cited from earlier work
[4] = tested on: blood-brain barrier coculture model (brain capillary endothelial cells and astrocytes); assay: Blood-brain barrier coculture model, permeability measured as TEER; format: cell-based, bovine brain capillary endothelial cells; rat astrocytes; details: TNF-α (50 ng/ml) and/or IL-1β (5 ng/ml) added to the BBB coculture model; n=3; FIG. 2
Method: A blood-brain barrier coculture model was prepared by a method that had previously been reported (Eur. J. Pharm. Sci., 12: 215-222, 2001). Specifically, brain microcapillary endothelial cells and rat astrocytes were isolated, and the two types of cells were cultured on both sides of a Transwell™ filter, so as to prepare a coculture model. The preparation method of such a coculture model will be described below.
A brain capillary was isolated from a bovine brain. The meninx and white matter were eliminated therefrom, and the gray matter was recovered in DMEM (DMEM+S) to which 10% fetal calf serum had been added. Vascular fragments were prepared by homogenizing by hand, using a Wheaton homogenizer, and they were then captured on a 150-μm nylon mesh. The blood vessel was digested with collagenase, trypsin and DNAseI, in DMEM+S at 37° C. for 1 hour. […]
The brain capillary was inoculated into a plastic flask used for tissue culture, which had been covered with type IV collagen and fibronectin, and was allowed to adhere to a medium for 4 hours. Thereafter, the medium was exchanged with a growth medium (DMEM+S to which a 50% (v/v) astrocyte-conditioned medium and 125 μg/ml heparin had been added), and growing cells (large quantities of brain capillary endothelial cells and only small quantities of peritheliums) were cultured at 37° C. in 10% CO2. […]

Molecule | increased concentration of IL-1β in spinal fluid [1] | increased concentration of TNF-α in spinal fluid [1] | increased protein ratio in spinal fluid/blood plasma [1] | limb neuroparalysis scores [2] | reactivity to active oxygen [3] | TEER (transcellular endothelial electrical resistance) [4]
CC1=NN(c2ccccc2)C(=O)C1 [edaravone, 3-methyl-1-phenyl-2-pyrazolin-5-one] | inhibited | inhibited | inhibited | improved | high reactivity | –
IL-1β: interleukin-1 beta, inflammatory cytokine | – | – | – | – | – | significantly reduced
TNF-α | – | – | – | – | – | significantly reduced
